# Results from ChEMBL document CHEMBL5260857, “Identification of specific carbonic anhydrase inhibitors via in situ click chemistry, phage-display and synthetic peptide libraries: comparison of the methods and structural study” (RSC Med Chem, 2023).
# Where a SMILES comes first, the peptide text is derived from it. The star is where a group is joined. X2 = NS(=O)(=O)c1ccc(CCNC(=O)Cn2cc(COC(=O)*)nn2)cc1; X1 = NS(=O)(=O)c1ccc(CO/N=C/C(=O)*)cc1
# Biological target: Carbonic anhydrase 9 (Homo sapiens, UniProt Q16790)
# Assay: Inhibition of human carbonic anhydrase 9 assessed as Ki by stopped-flow carbon dioxide hydration assay
row,SMILES,Ki [nM]
1,CC(C)C[C@H](NC(=O)[C@H](CO)NC(=O)/C=N/OCc1ccc(S(N)(=O)=O)cc1)C(=O)N1CCC[C@H]1C(N)=O,2800
2,CC(C)C[C@H](NC(=O)[C@H](CO)NC(=O)/C=N/OCc1ccc(S(N)(=O)=O)cc1)C(=O)N1CCC[C@H]1C(=O)N[C@@H](Cc1ccccc1)C(N)=O (X1-SLPF-NH2),936
3,CC(C)C[C@H](NC(=O)[C@H](CO)NC(=O)/C=N/OCc1ccc(S(N)(=O)=O)cc1)C(N)=O,2500
4,CC(C)C[C@H](NC(=O)[C@H](CO)NC(=O)/C=N/OCc1ccc(S(N)(=O)=O)cc1)C(=O)N1CCC[C@H]1C(=O)N[C@@H](Cc1ccccc1)C(=O)N[C@H](C(=O)N[C@H](C(=O)N[C@@H](Cc1ccc(O)cc1)C(=O)N[C@@H](CC(N)=O)C(N)=O)C(C)C)[C@@H](C)O (X1-SLPFTVYN-NH2),1370
5,NOCc1ccc(S(N)(=O)=O)cc1,844
6,C[C@H](NC(=O)[C@H](Cc1cnc[nH]1)NC(=O)[C@H](C)NC(=O)[C@H](CCCCN)NC(=O)[C@H](Cc1ccc(O)cc1)NC(=O)[C@@H]1CCCN1C(=O)[C@H](Cc1cnc[nH]1)NC(=O)/C=N/OCc1ccc(S(N)(=O)=O)cc1)C(=O)N[C@@H](Cc1cnc[nH]1)C(N)=O (X1-HPYKAHAH-NH2),358

# Continued, values first:
row,Ki [nM],SMILES
1,69,CC(C)C[C@H](NC(=O)[C@H](CCC(N)=O)NC(=O)[C@H](Cc1ccc(O)cc1)NC(=O)[C@H](Cc1ccccc1)NC(=O)[C@@H](N)CCCCNC(=O)OCc1cn(CC(=O)NCCc2ccc(S(N)(=O)=O)cc2)nn1)C(=O)N[C@@H](Cc1ccc(O)cc1)C(=O)N[C@@H](Cc1ccccc1)C(N)=O (H-K(X2)FYQLYF-NH2)
2,150,C#Cc1ccc(S(N)(=O)=O)cc1
3,11,CC(C)C[C@@H](C(N)=O)n1cc(-c2ccc(S(N)(=O)=O)cc2)nn1
4,1200,[N-]=[N+]=NCC(=O)NCCc1ccc(S(N)(=O)=O)cc1
5,1800,NC(=O)[C@H](CO)NC(=O)/C=N/OCc1ccc(S(N)(=O)=O)cc1
6,104,NC(=O)[C@H](Cc1ccc(O)cc1)NC(=O)[C@H](Cc1ccc(O)cc1)NC(=O)[C@H](Cc1ccccc1)NC(=O)[C@H](Cc1c[nH]c2ccccc12)NC(=O)[C@H](Cc1ccccc1)NC(=O)[C@H](Cc1ccccc1)NC(=O)[C@@H](N)CCCCNC(=O)OCc1cn(CC(=O)NCCc2ccc(S(N)(=O)=O)cc2)nn1 (H-K(X2)FFWFYY-NH2)
